Reference: US20240208953A1, “"Cyclopenta[c]pyrrol Negative Allosteric Modulators of NR2B"” (Novartis AG, priority 2021, published 2024)

Key:
NR2B = NR2B (Rattus norvegicus (Rat), UniProt Q00960); experiment: NR2B rat cortical neuron calcium influx assay; assay type: cell-based; conditions: rat cortical neurons, glutamate and glycine stimulated calcium influx
Excerpt: Example 1: NR2B Rat Cortical Neuron Calcium Influx Assay Protocol
Embryonic day 18 timed pregnant Sprague Dawley rats were euthanized according to Institutional Animal Care and Use Committee (IACUC) protocol. After cutting medially through the skin and exposing the uterus and embryos, fetuses were removed and placed in cold Hibernate medium. Each embryo's brain was extracted and cerebral cortices were isolated by removing the midbrain and meninges. The dissected cortices were then dissociated into the neurons using papain dissociation system (Worthington Biochemical Corporation) according the manufacturer's protocol.
Dissociated neurons were counted and plated into 384-well poly-D-lysine coated plates (Corning® BioCoat™) at a density of 20,000 cells/well in 30 μL of Neurobasal/B27 complete medium. Neurons were cultured at 37° C. for 2 days. On the assay day, medium was removed and cells were incubated with 20 μL/well of calcium dye (Calcium 6 Assay Kit, Molecular Devices) suspended in HBSS with 1.8 mM Ca^2+ (Ca-HBSS) according to the manufacturer's instruction.
Compounds of interest from 10 mM stock were serially diluted into 3× of desired concentrations in 1.8 mM Ca-HBSS, and 10 μL were added to the wells. Compound and the neurons were incubated at 37° C. for 2 hours in the dark.
On FDSS7000EX (Hamamatsu Photonics), a fluorescence measuring instrument, 10 μL of 4× ligand solution containing glutamate and glycine made in 1.8 mM Ca^2+-HBSS were added to each well. The fluorescent signals were collected before and after the addition of ligands for a total of 2 minutes. The data were converted to a ratio of the peak fluorescence to the fluorescence at the beginning of the measurement.
Each data point was measured in duplicates. Dose response curves were used to identify IC50 and maximal inhibition values. IC50 represents the concentration in μM of compound at which there is a half-maximal compound effect. Maximal inhibition of a compound is expressed as a percent of the highest inhibition of activity over a no compound control.

P-glycoprotein (P-gp) = P-glycoprotein (P-gp) (Homo sapiens (Human), UniProt P08183); experiment: MDCK-MDR1 permeability / efflux assay; assay type: in vitro ADME; conditions: for efflux ratio at 120 min, 10 μM: dog, MDCK-MDR1, pH 7.4, efflux ratio, read-out: MDCK-MDR1 ER
Chain of P-glycoprotein (P-gp) (P08183 whole entry): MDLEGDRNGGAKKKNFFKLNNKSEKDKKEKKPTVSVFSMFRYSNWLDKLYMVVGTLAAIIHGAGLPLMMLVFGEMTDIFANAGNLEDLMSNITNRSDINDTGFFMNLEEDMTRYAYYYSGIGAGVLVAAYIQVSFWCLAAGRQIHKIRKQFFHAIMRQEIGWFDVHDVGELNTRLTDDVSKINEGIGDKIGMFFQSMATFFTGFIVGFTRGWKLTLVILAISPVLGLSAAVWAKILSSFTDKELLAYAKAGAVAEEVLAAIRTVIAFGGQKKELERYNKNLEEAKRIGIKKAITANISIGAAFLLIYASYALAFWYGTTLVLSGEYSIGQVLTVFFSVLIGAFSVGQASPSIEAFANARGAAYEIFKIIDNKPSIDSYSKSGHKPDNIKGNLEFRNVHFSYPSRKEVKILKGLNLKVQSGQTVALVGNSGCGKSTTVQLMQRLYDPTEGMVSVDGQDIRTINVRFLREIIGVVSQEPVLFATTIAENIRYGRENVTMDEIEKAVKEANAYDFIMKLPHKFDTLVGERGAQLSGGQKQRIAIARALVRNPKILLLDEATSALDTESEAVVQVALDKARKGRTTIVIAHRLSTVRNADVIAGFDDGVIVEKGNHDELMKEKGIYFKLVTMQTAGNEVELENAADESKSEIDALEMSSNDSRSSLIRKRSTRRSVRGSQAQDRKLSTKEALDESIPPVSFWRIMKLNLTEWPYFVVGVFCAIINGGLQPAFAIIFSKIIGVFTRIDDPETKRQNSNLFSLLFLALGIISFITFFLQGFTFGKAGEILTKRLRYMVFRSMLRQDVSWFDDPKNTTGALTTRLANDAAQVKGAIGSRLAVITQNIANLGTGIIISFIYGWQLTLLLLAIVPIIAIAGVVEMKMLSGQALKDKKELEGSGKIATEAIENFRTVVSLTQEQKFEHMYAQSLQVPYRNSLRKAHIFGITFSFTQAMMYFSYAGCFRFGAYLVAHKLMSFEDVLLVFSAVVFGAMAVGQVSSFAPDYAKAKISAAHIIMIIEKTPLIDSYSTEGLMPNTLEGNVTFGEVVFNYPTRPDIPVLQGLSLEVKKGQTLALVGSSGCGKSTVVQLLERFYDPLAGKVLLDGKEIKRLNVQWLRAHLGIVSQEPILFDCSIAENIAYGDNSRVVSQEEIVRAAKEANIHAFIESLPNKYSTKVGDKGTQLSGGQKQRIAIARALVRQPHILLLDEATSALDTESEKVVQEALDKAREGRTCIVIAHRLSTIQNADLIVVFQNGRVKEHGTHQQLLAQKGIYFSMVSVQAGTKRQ
Experimental: Example 4. Experimental Measurement of Efflux with MDCK-MDR1 Protocol
Cell Culture. MDCK-MDR1 cells were cultured at 37° C. under a 5% CO2 atmosphere, at 95% relative humidity in DMEM containing 10% FBS, penicillin-streptomycin (100 μg/mL), and 2 mM Ala-Gln. Cells were passaged every 3-4 days. For assay purposes, cells were seeded at a density of approximately 265,000 cells/cm^2 of a 96-well Transwell plate (Corning Life Sciences, Acton, MA) and cultured in the same media noted above for a period of 4 days.
Assay. The determination of the apparent permeability (Papp) was performed in both the A→B (apical to basal) and B→A (basal to apical) directions where each compound was assayed in triplicate. The zwitterion bestatin, a poorly permeably compound, was used as marker of monolayer integrity. To initiate the assay, media was aspirated, and the cells and basal chambers were washed three times with Hank's Balanced Salt Solution (HBSS) containing 10 mM HEPES (pH 7.4). Compound test solutions were prepared in triplicate in HBSS containing 10 mM HEPES (pH 7.4) and 0.02% bovine serum albumin (BSA) to a final concentration of 10 μM and centrifuged for 2 min at 4000×g, then applied to the donor compartment at time zero. Additionally, at time zero, a 37° C. solution without test articles (HBSS+10 mM HEPES (pH 7.4) plus 0.02% BSA) was added to the receiver chamber of the Transwell plate. A time zero sample of the donor solution was also sampled for further analysis. The assay was conducted for a period of 120 min at 37° C. without shaking. At the time of assay termination, samples were taken from each donor compartment, and each acceptor compartment of the Transwell plate. To each of the 0 and 120 min samples was added an internal standard solution containing glyburide in water:acetonitrile, 50:50 (v:v). Concentration curves were prepared using a Labcyte Echo in the same matrix noted above. Samples and concentration curve samples were centrifuged for 10 min at 4000×g and subsequently analyzed by mass spectroscopy.
Mass Spectroscopy. Assay samples were loaded onto a RapidFire C4 cartridge by means of a RapidFire autosampler (Agilent, Santa Clara, CA). […] Mass spectroscopy was performed using an AB Sciex AP15500 (Sciex, Frammingham, MA) equipped with a turbo ion spray source. The analyte concentration was calculated from the chromatographic peak area ratio of analyte to internal standard (glibenclamide, m/z 494→169), using Multiquant software V3.0 (Sciex, Framingham, MA).
Calculations. Papp values were determined as
Percent recovery values were determined as:
where VA is the volume of the acceptor (mL), S is the surface area of the membrane, D0 is the donor solution concentration at t=0, D120 is the donor solution concentration at t=120, A120 is the acceptor solution concentration at t=120, and t=time (seconds).
The suitability of a compound for oral dosing and/or for use as a CNS therapeutic is usually conducted by MDCK-MDR1 permeability assay to investigate its drug efflux potential mediated by P-glycoprotein (P-gp). MDCK-MDR1 permeability has been used as a predictor of blood brain barrier permeability in terms of efflux ratio (ER).

Chain of NR2B (Q00960 27-1482, other chains not shown): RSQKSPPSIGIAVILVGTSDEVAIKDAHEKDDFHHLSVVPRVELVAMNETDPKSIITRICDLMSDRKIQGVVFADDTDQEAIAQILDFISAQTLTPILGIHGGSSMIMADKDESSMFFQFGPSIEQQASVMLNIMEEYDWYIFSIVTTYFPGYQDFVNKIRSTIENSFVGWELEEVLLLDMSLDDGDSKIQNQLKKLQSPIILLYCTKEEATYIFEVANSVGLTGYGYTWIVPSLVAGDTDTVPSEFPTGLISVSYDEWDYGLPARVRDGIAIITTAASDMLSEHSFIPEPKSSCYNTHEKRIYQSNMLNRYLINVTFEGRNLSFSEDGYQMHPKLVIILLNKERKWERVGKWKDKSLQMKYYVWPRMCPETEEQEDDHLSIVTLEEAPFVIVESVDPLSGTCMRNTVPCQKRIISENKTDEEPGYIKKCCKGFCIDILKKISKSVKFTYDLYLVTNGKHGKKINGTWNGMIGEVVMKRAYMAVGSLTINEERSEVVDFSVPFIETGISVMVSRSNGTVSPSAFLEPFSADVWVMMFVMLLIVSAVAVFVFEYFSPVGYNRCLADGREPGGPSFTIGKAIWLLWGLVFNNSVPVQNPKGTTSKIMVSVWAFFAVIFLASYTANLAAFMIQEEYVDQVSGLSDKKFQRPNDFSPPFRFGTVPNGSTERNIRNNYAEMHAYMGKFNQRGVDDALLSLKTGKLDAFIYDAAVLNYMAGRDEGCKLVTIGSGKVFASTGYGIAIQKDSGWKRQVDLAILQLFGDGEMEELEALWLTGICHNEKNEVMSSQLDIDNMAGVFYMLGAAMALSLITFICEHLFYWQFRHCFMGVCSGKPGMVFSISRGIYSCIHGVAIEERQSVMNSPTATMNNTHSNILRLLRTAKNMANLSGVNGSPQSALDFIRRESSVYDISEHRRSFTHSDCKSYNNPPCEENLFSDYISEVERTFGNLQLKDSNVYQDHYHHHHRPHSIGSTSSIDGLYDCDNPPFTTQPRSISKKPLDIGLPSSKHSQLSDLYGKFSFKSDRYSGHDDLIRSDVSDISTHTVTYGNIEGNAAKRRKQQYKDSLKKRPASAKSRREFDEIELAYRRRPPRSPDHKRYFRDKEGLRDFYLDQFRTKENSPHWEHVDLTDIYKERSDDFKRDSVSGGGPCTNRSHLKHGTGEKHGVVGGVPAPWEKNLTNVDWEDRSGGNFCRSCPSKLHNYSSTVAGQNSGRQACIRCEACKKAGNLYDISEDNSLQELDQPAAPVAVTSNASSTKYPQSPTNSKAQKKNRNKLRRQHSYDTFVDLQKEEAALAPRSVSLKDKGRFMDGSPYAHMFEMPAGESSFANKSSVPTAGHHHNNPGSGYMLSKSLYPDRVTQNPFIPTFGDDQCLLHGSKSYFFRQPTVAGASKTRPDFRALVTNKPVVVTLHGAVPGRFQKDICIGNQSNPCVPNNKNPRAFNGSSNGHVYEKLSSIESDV

IC50 (NR2B) [nM]	efflux ratio at 120 min, 10 μM (P-glycoprotein (P-gp))	MDCK-MDR1 ER (P-glycoprotein (P-gp); efflux ratio, 10 μM, 120 min)	Molecule
14	2.73		O=C1CCCc2cc([C@@H](O)CN3C[C@H]4C[C@H](Oc5ccccc5)C[C@@]4(O)C3)ccc2N1 (single isomer, unassigned) [Example 7A]
100	3.3		O=C1Cc2cc([C@@H](O)CN3C[C@H]4C[C@H](Oc5ccccc5)C[C@@]4(O)C3)ccc2N1 (single isomer, unassigned) [Example 2A]
1.9	2.52		O=C1CCc2cc([C@H](O)CN3C[C@@H]4C[C@@H](Oc5cc(F)ccc5F)C[C@]4(O)C3)ccc2N1 (single isomer, unassigned) [Example 26D]
1.4	2.05		O=C1CCc2cc([C@H](O)CN3C[C@@H]4C[C@@H](Oc5c(F)cccc5F)C[C@]4(O)C3)ccc2N1 (single isomer, unassigned) [Example 27D]
520	1.01		O=C1CCc2cc([C@@H](O)CN3C[C@H]4C[C@H](Oc5ccccc5F)C[C@@]4(O)C3)cc(F)c2N1 (single isomer, unassigned) [Example 6A]
0.23	2.44		O=C1Nc2ccc([C@H](O)CN3C[C@H]4C[C@H](Oc5ccccc5F)C[C@@]4(O)C3)cc2CO1 (single isomer, unassigned) [Example 41B]
33	1.15		O=C1Nc2c(F)cc([C@@H](O)CN3C[C@H]4C[C@H](Oc5ccccc5)C[C@@]4(O)C3)c(F)c2CO1 (single isomer, unassigned) [Example 37A]
250	6.87		O=C1CCc2cc([C@H](O)CN3C[C@@H]4C[C@@H](Oc5ccccc5)[C@@H](O)[C@]4(O)C3)ccc2N1 [Example 4D, 6-((S)-2-((3aR,4R,5R,6aS)-3a,4-dihydroxy-5-phenoxyhexahydrocyclopenta[c]pyrrol-2(1H)-yl)-1-hydroxyethyl)-3,4-dihydroquinolin-2(1H)-one]
0.0015	1.6		O=C1Nc2ccc([C@@H](O)CN3C[C@H]4C[C@H](Oc5ccccc5F)C[C@@]4(O)C3)cc2CS1 (single isomer, unassigned) [Example 15A]
38	1.05		O=C1CCc2cc([C@@H](O)CN3C[C@H]4C[C@H](Oc5ccccc5F)C[C@@]4(O)C3)ccc2N1 [Example 5A, 6-((R)-2-((3aS,5S,6aR)-5-(2-fluorophenoxy)-3a-hydroxyhexahydrocyclopenta[c]pyrrol-2(1H)-yl)-1-hydroxyethyl)-3,4-dihydroquinolin-2(1H)-one]
0.034	2.16		O=C1CCCc2cc([C@@H](O)CN3C[C@H]4C[C@H](Oc5ccccc5F)C[C@@]4(O)C3)ccc2N1 (single isomer, unassigned) [Example 43A]
1.2	1		O=C1Nc2c(F)cc([C@@H](O)CN3C[C@H]4C[C@H](Oc5ccccc5F)C[C@@]4(O)C3)cc2CO1 (single isomer, unassigned) [Example 35A]
2.7	1.06		O=C1CCc2c(ccc([C@@H](O)CN3C[C@H]4C[C@H](Oc5ccccc5)C[C@@]4(O)C3)c2F)N1 (single isomer, unassigned) [Example 9A]
1.3	3.28		O=C1CCc2cc([C@H](O)CN3C[C@@H]4C[C@@H](Oc5cccc(F)c5)C[C@]4(O)C3)ccc2N1 (single isomer, unassigned) [Example 23D]
86	1.22		O=C1COc2cc([C@@H](O)CN3C[C@H]4C[C@H](Oc5ccccc5)C[C@@]4(O)C3)cc(F)c2N1 (single isomer, unassigned) [Example 13A]
1.1	3.47		O=C1Nc2ccc([C@H](O)CN3C[C@H]4C[C@H](Oc5ccccc5)C[C@@]4(O)C3)c(F)c2CO1 (single isomer, unassigned) [Example 34B]
0.3	1.86		O=C1Nc2ccc([C@@H](O)CN3C[C@H]4C[C@H](Oc5ccccc5F)C[C@@]4(O)C3)cc2CO1 (single isomer, unassigned) [Example 41A]
0.0019	1.92		O=C1Nc2ccc([C@H](O)CN3C[C@H]4C[C@H](Oc5ccccc5F)C[C@@]4(O)C3)cc2CS1 (single isomer, unassigned) [Example 15B]
< 0.0021	1.61		O=c1[nH]c2ccc([C@@H](O)CN3C[C@H]4C[C@H](Oc5ccccc5F)C[C@@]4(O)C3)cc2s1 (single isomer, unassigned) [Example 18A]
960		0.83	9-fluoro-7-((R)-1-hydroxy-2-((3aS,5S,6aR)-3a-hydroxy-5-phenoxyhexahydrocyclopenta[c]pyrrol-2(1H)-yl)ethyl)-1,5-dihydrobenzo[e][1,4]oxazepin-2(3H)-one [Example 32A]
13	6.99		O=C1CCc2cc([C@@H](O)CN3C[C@H]4C[C@H](Oc5ccccc5)[C@H](O)[C@@]4(O)C3)ccc2N1 [Example 4A, 6-((R)-2-((3aS,4S,5S,6aR)-3a,4-dihydroxy-5-phenoxyhexahydrocyclopenta[c]pyrrol-2(1H)-yl)-1-hydroxyethyl)-3,4-dihydroquinolin-2(1H)-one]
0.56	2.49		O=C1CCc2cc([C@H](O)CN3C[C@H]4C[C@H](Oc5ccccc5)C[C@@]4(O)C3)c(F)cc2N1 (single isomer, unassigned) [Example 10B]
4.1	1.4		O=C1CCc2c(ccc([C@H](O)CN3C[C@H]4C[C@H](Oc5ccccc5)C[C@@]4(O)C3)c2F)N1 (single isomer, unassigned) [Example 9B]
3050	6.75		O=C1CCc2cc([C@@H](O)CN3C[C@@H]4C[C@@H](Oc5ccccc5)[C@@H](O)[C@]4(O)C3)ccc2N1 [Example 4C, 6-((R)-2-((3aR,4R,5R,6aS)-3a,4-dihydroxy-5-phenoxyhexahydrocyclopenta[c]pyrrol-2(1H)-yl)-1-hydroxyethyl)-3,4-dihydroquinolin-2(1H)-one]
1.7	3.18		O=C1Nc2ccc([C@H](O)CN3C[C@H]4C[C@H](Oc5ccccc5)C[C@@]4(O)C3)cc2CO1 (single isomer, unassigned) [Example 28B]
1.3	2.04		O=C1Nc2c(F)cc([C@H](O)CN3C[C@H]4C[C@H](Oc5ccccc5F)C[C@@]4(O)C3)cc2CO1 (single isomer, unassigned) [Example 35B]
